#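 Cultured in 96-well plates, cells were exposed to test compound for 48 hours across five concentrations. Abbreviation: GI50, concentration required for 50% inhibition of growth. TGI: total growth inhibition.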
# Tests used:
# Assay in all cases: DTP human tumour cell line panel, 48 h
# [1] = test system: DLD-1 colon
# [2] = test system: HOP-18 NSCLC
# [3] = test system: HT29 colon
# [4] = test system: IGROV1 ovarian
# [5] = test system: LOX IMVI melanoma
# [6] = test system: MALME-3M melanoma
# [7] = test system: MOLT-4 leukemia
# [8] = test system: SK-OV-3 ovarian
# [9] = test system: SNB-78 CNS
# [10] = test system: TK-10 renal
# [11] = test system: ACHN renal
Compound,TGI [1],TGI [2],TGI [3],TGI [4],TGI [5],TGI [6],GI50 [7],TGI [7],TGI [8],TGI [9],TGI [10],TGI [11],GI50 [2],GI50 [11],GI50 [3],GI50 [4],GI50 [5],GI50 [6],GI50 [8],GI50 [10]
C=C1C(C)C2C(Cc3ccccc3)NC(=O)C23OC(=O)/C=C\CC(=O)CCC(C)C/C=C/C3C1O (centres undefined),3.36 µM,1.94 µM,11.1 µM,10.6 µM,3.64 µM,5.18 µM,1010 nM,3.83 µM,19 µM,2.08 µM,0.722 µM,–,–,–,–,–,–,–,–,–
[N-]=[N+]=NCC(O)Cn1cnc2c(NC(=O)c3ccccc3)ncnc21 (centres undefined),> 100 µM,> 100 µM,> 100 µM,> 100 µM,> 100 µM,> 100 µM,–,> 100 µM,–,> 100 µM,> 100 µM,> 100 µM,–,–,–,–,–,–,–,–
O=c1c2ccccc2nc2ccc3c(Cl)[nH][nH]c3c12,> 100 µM,> 100 µM,> 100 µM,> 100 µM,58.3 µM,77.3 µM,–,> 79 µM,> 100 µM,> 100 µM,> 100 µM,> 100 µM,–,–,–,–,–,–,–,–
CCOC(=O)C1=C(O)c2ccc(C)cc2C(=O)C1=O,> 100 µM,> 100 µM,> 100 µM,> 100 µM,> 100 µM,> 100 µM,–,> 100 µM,> 100 µM,> 100 µM,> 100 µM,> 100 µM,–,–,–,–,–,–,–,–
CCCCN(C)/N=N/c1nc[nH]c1C(N)=O,> 100 µM,> 100 µM,> 100 µM,> 100 µM,> 100 µM,> 100 µM,–,> 100 µM,> 100 µM,> 100 µM,–,–,–,–,–,–,–,–,–,–
Cc1c2cccc-2ccc2c3ccccc3n(C(=O)c3ccc(Cl)cc3)c12,–,–,> 100 µM,> 100 µM,> 100 µM,> 100 µM,–,> 100 µM,> 100 µM,–,> 100 µM,> 100 µM,–,–,–,–,–,–,–,–
CC(C)c1cc(C(C)C)c(S(=O)(=O)N=[N+]=[N-])c(C(C)C)c1,> 100 µM,–,> 100 µM,> 100 µM,> 100 µM,> 100 µM,–,> 100 µM,> 100 µM,–,> 100 µM,> 100 µM,–,–,–,–,–,–,–,–
COc1cc(Oc2nc3cc(F)c(F)cc3nc2-c2ccccc2)cc(OC)c1OC,–,–,> 100 µM,> 100 µM,> 100 µM,96.9 µM,–,> 100 µM,> 100 µM,–,> 100 µM,> 100 µM,–,–,–,–,–,–,–,–
COc1cc2nc(-c3cccs3)nc(Nc3cccc(Cl)c3)c2cc1OC,–,–,> 100 µM,> 100 µM,> 100 µM,> 100 µM,–,> 100 µM,> 100 µM,–,25.3 µM,> 100 µM,–,–,–,–,–,–,–,–
O=C(OCc1ccccc1)N1CCNCCNCCN(C(=O)OCc2ccccc2)CCNCC1,–,–,32.9 µM,91.3 µM,30.8 µM,36.5 µM,–,38.9 µM,> 100 µM,–,67.2 µM,> 100 µM,–,–,–,–,–,–,–,–
CC(=O)OC[C@H]1On2nnnc2[C@H](OC(C)=O)[C@@H](OC(C)=O)[C@@H]1OC(C)=O,–,–,> 100 µM,> 100 µM,> 100 µM,> 100 µM,–,> 100 µM,> 100 µM,–,> 100 µM,> 100 µM,–,–,–,–,–,–,–,–
CSc1cnc2ccccc2c1Sc1c[nH]c2ccccc2c1=O,> 80.7 µM,67.8 µM,15.1 µM,43.1 µM,67.2 µM,37.6 µM,–,> 44.7 µM,14.8 µM,> 100 µM,91.4 µM,52.5 µM,–,–,–,–,–,–,–,–
Clc1cc(Cl)ncn1,–,–,> 100 µM,> 100 µM,> 100 µM,> 100 µM,–,> 100 µM,> 100 µM,–,> 100 µM,> 100 µM,–,–,–,–,–,–,–,–
Cc1c2ccncc2c(C)c2c1[nH]c1ccc(OCCN(C)C)cc12,0.718 µM,2.76 µM,1.24 µM,1.42 µM,0.396 µM,2.96 µM,–,0.157 µM,1.84 µM,3.2 µM,–,–,–,–,–,–,–,–,–,–
CC(=O)OCC1OC(n2c(C)c(C)c(C)c(C#N)c2=S)C(OC(C)=O)C(OC(C)=O)C1OC(C)=O (centres undefined),–,–,> 100 µM,> 100 µM,> 100 µM,> 100 µM,–,> 100 µM,80.9 µM,–,> 100 µM,> 100 µM,–,–,–,–,–,–,–,–
COC(=O)Cn1cnc2c(Cl)nc(Nc3ccccc3)nc21,–,–,> 100 µM,56.1 µM,41.4 µM,> 100 µM,–,84.7 µM,> 100 µM,–,> 100 µM,> 100 µM,–,–,–,–,–,–,–,–
CC1(C)CC[C@]2(C(=O)O)CC[C@]3(C)[C@H](C(=O)C=C4[C@@]5(C)C=C(C#N)C(=O)C(C)(C)[C@@H]5CC[C@]43C)[C@@H]2C1,–,–,6.43 µM,7.15 µM,1.1 µM,1.55 µM,–,13.9 µM,14.8 µM,–,2.02 µM,4.47 µM,–,–,–,–,–,–,–,–
CCC(=O)OC1CCn2c1nc1c2C(=O)C(C)=C(NC(C)=O)C1=N (centres undefined),3.19 µM,3.26 µM,3.36 µM,5.54 µM,3 µM,2.74 µM,–,–,6.82 µM,6.05 µM,12.8 µM,3.95 µM,–,–,–,–,–,–,–,–
CCN(CC)CC1CCCCN1CC(=O)N1CC(C)C(=O)Nc2ccccc21 (centres undefined),> 100 µM,> 100 µM,> 100 µM,> 100 µM,> 100 µM,> 100 µM,–,> 100 µM,> 100 µM,–,–,> 100 µM,–,–,–,–,–,–,–,–
O=C(Nc1nn[nH]n1)c1nc(-c2ccccc2)cc(=O)[nH]1,> 100 µM,–,> 100 µM,> 100 µM,> 100 µM,> 100 µM,–,> 100 µM,> 100 µM,> 100 µM,> 100 µM,> 100 µM,–,–,–,–,–,–,–,–

Compound,TGI [1],TGI [2],TGI [3],TGI [4],TGI [5],TGI [6],GI50 [7],TGI [7],TGI [8],TGI [9],TGI [10],TGI [11],GI50 [2],GI50 [11],GI50 [3],GI50 [4],GI50 [5],GI50 [6],GI50 [8],GI50 [10]
Oc1ccc(Oc2cc3c(cc2Oc2ccc(O)cc2)-c2nc-3nc3[nH]c(nc4nc(nc5[nH]c(n2)c2cc(Oc6ccc(O)cc6)c(Oc6ccc(O)cc6)cc52)-c2cc(Oc5ccc(O)cc5)c(Oc5ccc(O)cc5)cc2-4)c2cc(Oc4ccc(O)cc4)c(Oc4ccc(O)cc4)cc32)cc1,–,–,> 100 µM,> 100 µM,> 100 µM,47 µM,–,> 100 µM,> 100 µM,–,> 100 µM,> 100 µM,–,–,–,–,–,–,–,–
Cc1ccc(S(=O)(=O)NC(=O)C2=C3SCCN3C(=O)N(S(=O)(=O)c3ccc(C)cc3)C2c2ccccc2)cc1 (centres undefined),–,–,> 100 µM,> 100 µM,> 100 µM,> 100 µM,–,> 100 µM,66.8 µM,–,> 100 µM,> 100 µM,–,–,–,–,–,–,–,–
CCOc1cc2c(cc1O)C(O)C[C@@H]1[C@@H]2CC[C@]2(C)[C@@H](O)CC[C@@H]12 (some centres undefined),–,–,25.1 µM,> 100 µM,> 100 µM,> 100 µM,–,> 100 µM,> 100 µM,–,> 100 µM,> 100 µM,–,–,–,–,–,–,–,–
CCOC(=O)CCC(C(=O)OCC)n1nnc2cc(Nc3c(C)[n+]([O-])c4cc(F)c(OCC)cc4[n+]3[O-])ccc21 (centres undefined),–,–,> 100 µM,> 100 µM,> 100 µM,> 100 µM,–,> 100 µM,> 100 µM,–,> 100 µM,> 100 µM,–,–,–,–,–,–,–,–
NC(N)=NC1C(O)C(O)C(O)C(N=C(N)N)C1O (centres undefined),–,–,> 100 µM,> 100 µM,> 100 µM,> 100 µM,–,> 100 µM,> 100 µM,–,> 100 µM,> 100 µM,–,–,–,–,–,–,–,–
O=[Se](O)O,–,–,> 91.8 µM,2.43 µM,> 100 µM,> 100 µM,–,> 100 µM,12.8 µM,–,> 100 µM,76.6 µM,–,–,–,–,–,–,–,–
CCN(CC)C(=O)CCN1CC1,–,–,> 10 µM,> 10 µM,> 10 µM,> 10 µM,–,> 10 µM,> 10 µM,–,> 10 µM,> 10 µM,–,–,–,–,–,–,–,–
CC(C)=CCC[C@@H](C)C1=C(O)C(Nc2ccccc2I)=C(C)C(=O)C1=O,–,–,28 µM,17.9 µM,> 75 µM,29.8 µM,–,> 19.5 µM,61.5 µM,–,> 75 µM,44 µM,–,–,–,–,–,–,–,–
O=c1[nH]c(=O)n(C2OC(CO)C(O)C2O)cc1OCCCc1ccccc1 (centres undefined),–,–,> 100 µM,> 100 µM,> 100 µM,> 100 µM,–,> 100 µM,> 100 µM,–,> 100 µM,> 100 µM,–,–,–,–,–,–,–,–
Cc1cc(S(=O)(=O)/N=C(/NN)Nc2ccc(Cl)cc2)c(S)cc1Cl,–,–,49.2 µM,39.7 µM,30.5 µM,37.1 µM,–,58.9 µM,49.5 µM,–,65.3 µM,20 µM,–,–,–,–,–,–,–,–
NCCSCCC(=O)O,–,–,> 100 µM,> 100 µM,> 93.7 µM,> 100 µM,–,> 100 µM,> 100 µM,–,> 100 µM,> 56.1 µM,–,–,–,–,–,–,–,–
O=c1c2nc(-c3ccccc3)oc2n(-c2ccccc2)c(=O)n1-c1ccccc1,–,–,> 46.4 µM,41 µM,> 46.4 µM,> 31.6 µM,–,> 46.4 µM,40.1 µM,–,21.5 µM,> 46.4 µM,–,–,–,–,–,–,–,–
O=C(c1ccc(Cl)cc1)N1CCN=C1c1cc2ccccc2c2ccccc12,–,–,30 µM,29.2 µM,36.1 µM,32.5 µM,–,> 100 µM,29.6 µM,–,29.2 µM,31.2 µM,–,–,–,–,–,–,–,–
COc1ccc(C)cc(=O)c1O,> 100 µM,> 100 µM,> 100 µM,> 100 µM,79.7 µM,> 100 µM,–,> 100 µM,> 100 µM,> 100 µM,> 100 µM,> 100 µM,–,–,–,–,–,–,–,–
CC1(C)C=C(/C=N/Nc2ccccc2)C(C#N)=C(O)C1(C#N)C#N,–,–,> 100 µM,> 100 µM,> 100 µM,> 100 µM,–,> 100 µM,> 100 µM,–,> 100 µM,> 100 µM,–,–,–,–,–,–,–,–
Cc1nc(-c2cc3ccccc3oc2=O)cs1,–,–,> 100 µM,> 100 µM,> 100 µM,> 100 µM,–,> 100 µM,> 100 µM,–,> 100 µM,> 100 µM,–,–,–,–,–,–,–,–
COc1cc2c(c(OC)c1OC)-c1ccc(SC)c(=O)cc1[C@@H](NCc1ccc([N+](=O)[O-])cc1)CC2,> 100 µM,> 100 µM,0.011 µM,> 100 µM,> 100 µM,> 100 µM,–,> 100 µM,–,> 100 µM,–,> 100 µM,> 100 µM,–,–,–,–,–,–,–
O=C1C2C=CC(n3[nH]c(=O)n(Cc4ccccc4)c3=O)CC2C(=O)N1c1ccc(Br)cc1 (centres undefined),> 100 µM,> 100 µM,> 100 µM,> 100 µM,> 100 µM,> 100 µM,–,> 100 µM,> 100 µM,> 100 µM,> 100 µM,> 100 µM,–,–,–,–,–,–,–,–
N/C(=N\N=C\c1ncccc1O)NO,> 100 µM,> 100 µM,> 100 µM,> 100 µM,> 100 µM,> 100 µM,–,> 64.4 µM,> 84.1 µM,> 100 µM,–,–,–,–,–,–,–,–,–,–
COc1ccccc1C1C(C#N)=C(N)Oc2n[nH]c(C)c21 (centres undefined),–,–,> 100 µM,95.7 µM,> 100 µM,> 100 µM,> 100000 nM,> 100 µM,> 100 µM,–,> 100 µM,> 100 µM,–,> 100 µM,> 100 µM,37.7 µM,> 100 µM,> 100 µM,> 100 µM,> 100 µM
